Patent US20150283147A1, “TREATING POLYCYSTIC KIDNEY DISEASE WITH HSP90 INHIBITORY COMPOUNDS” (SYNTA PHARMACEUTICALS CORP., priority 2012, published 2015)
Entries after “also recorded” stand apart in the source; their conditions may differ.

Tests used:
Pkd1^−/− mice = experiment: Cyst formation and kidney growth in conditional Pkd1-/- mice (MRI, kidney weight, cystic index, BUN); type: in vivo
Description: All experiments involving mice were approved by the Institutional Animal Care and Use Committee of Fox Chase Cancer Center. Conditional Pkd1^−/− mice using the Cre-flox regulatory system for targeted inactivation of the Pkd1 gene in vivo were kindly provided by Gregory Germino (National Institute of Diabetes and Digestive and Kidney Diseases). Pkd1fl/fl;Cre/Esr1+ (referred to as Pkd1^−/−) and control mice (Pkd1fl/fl;Cre/Esr1−; referred to as Control) mice were injected intraperitoneally with tamoxifen (250 mg/kg body weight) on postnatal day P37/P38 (+/−1 day) to induce Pkd1 deletion in the test group.
Compound 111 was formulated in 5% dextrose titrated to pH 4, and administered by tail vein injection in anesthetized mice under sterile conditions using a volume of 10 μl/g body weight. Vehicle treated mice were injected with 5% dextrose only. To investigate the activity of compound 111 on early kidney disease, mice were treated with compound 111 for 5 months, starting 2-3 days after Pkd1 deletion. Treatment began with a weekly schedule up to 4 months of age, including one week off in the 3rd month of age, followed by a bi-weekly schedule from 4 to 6 month of age. 24 hours after the 16th injection, blood samples were collected and the mice were sacrificed to collect organs for histopathological and biochemical analysis. To investigate the activity of compound 111 on Late kidney disease, mice were dosed weekly with compound 111 for 10 weeks starting at 4 months of age. 24 hours after the 11th dose (10 weeks of treatment), blood samples were collected and the mice were sacrificed to collect organs for histopathological and biochemical analysis.
To assess the utility of HSP90 inhibition in ADPKD, Pkd1fl/fl;Cre/Esr1+ (referred to as Pkd1^−/−) and control Pkd1fl/fl;Cre/Esr1− (referred to as control) mice were injected with tamoxifen at 5-6 weeks of age to inactivate the Pkd1 gene. HSP90 was inhibited using compound, a resorcinolic triazole that competitively binds the N-terminal ATP pocket of HSP90. In one cohort of mice (designated Early), mice were dosed from 6 weeks-4 months of age, to assess drug effects on disease initiation (FIG. 1). […] (FIGS. 2-3)
In a second cohort (designated Late), mice were dosed from 4-6 months of age, to assess drug effects on mice with Late cysts, in this case using doses of 50 mg/kg and 100 mg/kg to explore dose range (FIGS. 4-6).
Mice were imaged in a vertical bore MR system at a field strength of 7 Tesla, using a Bruker DRX300 spectrometer, Paravision 3.0.2 software, and a single tuned ^1H cylindrical radiofrequency coil. […]
Using NIH ImageJ, an open source image analysis program, kidney and cyst volume were quantified. […]

Her2 = experiment: Degradation of Her2 in BT-474 cells (Method 1, Western blot); type: cell-based, Human; details: 0.5 μM, overnight
Description: Human high-Her2 breast carcinoma BT474 (HTB-20), SK-BR-3 (HTB-30) and MCF-7 breast carcinoma (HTB-22) from American Type Culture Collection, VA, USA were grown in Dulbecco's modified Eagle's medium with 4 mM L-glutamine and antibiotics (100 IU/ml penicillin and 100 ug/ml streptomycine;GibcoBRL). To obtain exponential cell growth, cells were trypsinized, counted and seeded at a cell density of 0.5×10^6 cells/ml regularly, every 3 days. All experiments were performed on day 1 after cell passage.
BT-474 cells are treated with 0.5 μM, 2 μM, or 5 μM of 17AAG (a positive control) or 0.5 μM, 2 μM, or 5 μM of a compound of the invention overnight in DMEM medium. After treatment, each cytoplasmic sample is prepared from 1×10^6 cells by incubation of cell lysis buffer (#9803, cell Signaling Technology) on ice for 10 minutes. The resulting supernatant used as the cytosol fractions is dissolved with sample buffer for SDS-PAGE and run on a SDS-PAGE gel, blotted onto a nitrocellulose membrane by using semi-dry transfer. Non-specific binding to nitrocellulose is blocked with 5% skim milk in TBS with 0.5% Tween at room temperature for 1 hour, then probed with anti-Her2/ErB2 mAb (rabbit IgG, #2242, Cell Signaling) and anti-Tubulin (T9026, Sigma) as housekeeping control protein. […]

FLT3 with Hsp90 = details: cited from earlier work
[1] = system: leukemia cells that express either wild type FLT3 or FLT3-ITD mutations; details: cited from earlier work
Kasumi-1 cells = details: Kasumi-1 acute myeloid leukemia cell line with c-Kit mutation; cited from earlier work

Structure (SMILES)	blood urea nitrogen (BUN) (Pkd1^−/− mice; Early cohort, 75 mg/kg, blood drawn at euthanasia)	formation of renal cysts and kidney growth (Pkd1^−/− mice; Early cohort, Pkd1−/− mice, 75 mg/kg, tail vein injection, 5 months)	reduction of cyst volume and kidney growth (Pkd1^−/− mice; Late cohort, 50 mg/kg and 100 mg/kg, 1×/week for 10 weeks, tail vein injection)	BUN scores (Pkd1^−/− mice; Late cohort, 100 mg/kg, 10 weeks)	degradation of Her2 (Her2)	association of FLT3 with Hsp90 (FLT3 with Hsp90)	growth of leukemia cells [1]	apoptosis (Kasumi-1 cells)
CC(C)c1cc(-c2nnc(C(=O)NCCN3CCOCC3)n2-c2ccc(CN3CCOCC3)cc2)c(O)cc1O [Compound 111, 5-(2,4-dihydroxy-5-isopropylphenyl)-N-(2-morpholinoethyl)-4-(4-(morpholinomethyl)phenyl)-4H-1,2,4-triazole-3-carboxamide]	trend towards reduction	very significantly reduced; also recorded: inhibited cyst formation, kidney growth	significant, dose-dependent effect; also recorded: reduced cystic burden	reduced BUN scores to normal levels				
C=CCNC1=C2C[C@@H](C)C[C@H](OC)[C@H](O)[C@@H](C)/C=C(\C)[C@H](OC(N)=O)[C@@H](OC)/C=C\C=C(/C)C(=O)NC(=CC1=O)C2=O [Compound 17AAG]					partial degradation	disrupt the association of FLT3 with Hsp90	inhibited	induce apoptosis
